The source of these data is patent publication US20080075784A1, “Taste Making Formulation Comprising The Drug In A Dissolution-Retarded Form And/Or Cyclodextrin In A Dissolution-Enhanced Form” (Pfizer Inc., priority 2004, published 2008).

The nature of the data set: β-cyclodextrin dissolution rate in deionized water by refractive index. It is filed as physicochemical. To be noted: for amount of dissolved cyclodextrin at one minute relative to the 156 μm cyclodextrin: one minute following administration; for β-Cyclodextrin Dissolved (%): 350 mg in 50 mL deionized water. Here is the method: In this example, the amount of dissolved cyclodextrin provided by several different β-cyclodextrin samples with varying ranges of particle size was determined. Samples of β-cyclodextrin with average particle sizes ranging from 116 μm to 249 μm were obtained from Roquette America of Keokuk, Iowa. In addition, a β-cyclodextrin sample with an average particle size range of about 57 μm was prepared by first dissolving the 249-μm commercially available sample in water and then lyophilizing the solution to form a fine powder. Volume weighted mean particle diameter in microns for each β-cyclodextrin sample was determined using a Horiba particle sizer.
The dissolution rates of these samples were determined as follows. A 350 mg sample of β-cyclodextrin of a given particle size was placed into 50 mL of deionized water, and the refractive index was measured at the time points noted in Table 2. Refractive index measurements were compared to a calibration curve of standards with known concentration, and the concentration of dissolved β-cyclodextrin versus time was determined.

Each structure is given as a SMILES string.

For the compound `OC[C@H]1O[C@@H]2O[C@H]3[C@H](O)[C@@H](O)[C@@H](O[C@H]4[C@H](O)[C@@H](O)[C@@H](O[C@H]5[C@H](O)[C@@H](O)[C@@H](O[C@H]6[C@H](O)[C@@H](O)[C@@H](O[C@H]7[C@H](O)[C@@H](O)[C@@H](O[C@H]8[C@H](O)[C@@H](O)[C@@H](O[C@H]1[C@H](O)[C@H]2O)O[C@@H]8CO)O[C@@H]7CO)O[C@@H]6CO)O[C@@H]5CO)O[C@@H]4CO)O[C@@H]3CO` [57 μm, β-cyclodextrin], the “amount of dissolved cyclodextrin at one minute relative to the 156 μm cyclodextrin” value was “about 2.4 fold”. Also, the “β-Cyclodextrin Dissolved (%)” value (time 0 min) is on record as 0%. Also, for the setting “time 1 min”, the “β-Cyclodextrin Dissolved (%)” value came out at 102%. Besides, the “β-Cyclodextrin Dissolved (%)” value (time 2 min) is reported as 102%. Also, for the setting “time 3 min”, the “β-Cyclodextrin Dissolved (%)” value stood at 97%. Besides, the “β-Cyclodextrin Dissolved (%)” value (time 4 min) is 99%. For the same compound, the “β-Cyclodextrin Dissolved (%)” value (time 5 min) was found to be 100%.
For `OC[C@H]1O[C@@H]2O[C@H]3[C@H](O)[C@@H](O)[C@@H](O[C@H]4[C@H](O)[C@@H](O)[C@@H](O[C@H]5[C@H](O)[C@@H](O)[C@@H](O[C@H]6[C@H](O)[C@@H](O)[C@@H](O[C@H]7[C@H](O)[C@@H](O)[C@@H](O[C@H]8[C@H](O)[C@@H](O)[C@@H](O[C@H]1[C@H](O)[C@H]2O)O[C@@H]8CO)O[C@@H]7CO)O[C@@H]6CO)O[C@@H]5CO)O[C@@H]4CO)O[C@@H]3CO` [116 μm, β-cyclodextrin], the “amount of dissolved cyclodextrin at one minute relative to the 156 μm cyclodextrin” value was “about 1.4 fold”. The “β-Cyclodextrin Dissolved (%)” value (time 0 min) is listed as 0%. Besides, the “β-Cyclodextrin Dissolved (%)” value (time 1 min) came to 58%. Besides, the “β-Cyclodextrin Dissolved (%)” value (time 2 min) was 76%. For the same compound, the “β-Cyclodextrin Dissolved (%)” value (time 3 min) worked out at 84%. The “β-Cyclodextrin Dissolved (%)” value (time 4 min) worked out at 88%.
In the case of `OC[C@H]1O[C@@H]2O[C@H]3[C@H](O)[C@@H](O)[C@@H](O[C@H]4[C@H](O)[C@@H](O)[C@@H](O[C@H]5[C@H](O)[C@@H](O)[C@@H](O[C@H]6[C@H](O)[C@@H](O)[C@@H](O[C@H]7[C@H](O)[C@@H](O)[C@@H](O[C@H]8[C@H](O)[C@@H](O)[C@@H](O[C@H]1[C@H](O)[C@H]2O)O[C@@H]8CO)O[C@@H]7CO)O[C@@H]6CO)O[C@@H]5CO)O[C@@H]4CO)O[C@@H]3CO` [156 μm, β-cyclodextrin], the “amount of dissolved cyclodextrin provided by crystalline cyclodextrin” value (one minute after administration) was “about 41%”. Also, the “β-Cyclodextrin Dissolved (%)” value (time 0 min) was found to be 0%; the “β-Cyclodextrin Dissolved (%)” value (time 1 min) stood at 41%; the “β-Cyclodextrin Dissolved (%)” value (time 2 min) is recorded as 81%; the “β-Cyclodextrin Dissolved (%)” value (time 3 min) is reported as 96%; the “β-Cyclodextrin Dissolved (%)” value (time 4 min) was 92%; the “β-Cyclodextrin Dissolved (%)” value (time 5 min) worked out at 95%.
As to `OC[C@H]1O[C@@H]2O[C@H]3[C@H](O)[C@@H](O)[C@@H](O[C@H]4[C@H](O)[C@@H](O)[C@@H](O[C@H]5[C@H](O)[C@@H](O)[C@@H](O[C@H]6[C@H](O)[C@@H](O)[C@@H](O[C@H]7[C@H](O)[C@@H](O)[C@@H](O[C@H]8[C@H](O)[C@@H](O)[C@@H](O[C@H]1[C@H](O)[C@H]2O)O[C@@H]8CO)O[C@@H]7CO)O[C@@H]6CO)O[C@@H]5CO)O[C@@H]4CO)O[C@@H]3CO` [183 μm, β-cyclodextrin], the “β-Cyclodextrin Dissolved (%)” value by setting is: (time 0 min) 0%; (time 1 min) 45%; (time 2 min) 52%; (time 3 min) 64%; (time 4 min) 64%; (time 5 min) 71%.
Take `OC[C@H]1O[C@@H]2O[C@H]3[C@H](O)[C@@H](O)[C@@H](O[C@H]4[C@H](O)[C@@H](O)[C@@H](O[C@H]5[C@H](O)[C@@H](O)[C@@H](O[C@H]6[C@H](O)[C@@H](O)[C@@H](O[C@H]7[C@H](O)[C@@H](O)[C@@H](O[C@H]8[C@H](O)[C@@H](O)[C@@H](O[C@H]1[C@H](O)[C@H]2O)O[C@@H]8CO)O[C@@H]7CO)O[C@@H]6CO)O[C@@H]5CO)O[C@@H]4CO)O[C@@H]3CO` [249 μm, β-cyclodextrin]: the “cyclodextrin dissolved after one minute” value (one minute, value taken from Table 3) is recorded as 20 wt %. In addition, the “β-Cyclodextrin Dissolved (%)” value runs as follows: (time 0 min) 0%; (time 1 min) 20%; (time 2 min) 26%; (time 3 min) 42%; (time 4 min) 54%; (time 5 min) 67%.
